Data set [1] deals with HL-60 cells. The experiment in a line: Differentiation by CD11b/CD14 flow cytometry. The format is cell-based, human. As to conditions: 7 days, 0.5 μM. Background: In flow cytometry, cells or beads pass a laser one at a time.
A further data set deals with CML-BC sample. The experiment in a line: Colony formation of CML-BC sample. The format is cell-based, human. As to conditions: CDDO 0.5 μM, CDDO-Me 0.1 μM.
A further data set relates to Daudi cells. The experiment in a line: cells. As to the method: Suspension culture of leukemic cells. Leukemic cell lines were cultured at a density of 3.0×10^5 cells/mL, and AML mononuclear cells at 5×10^5 cells/mL in the presence or absence of indicated concentrations of CDDO-Me. Appropriate amounts of DMSO (final concentration<0.05%) was included as a control. For cytotoxicity studies, 1 μM ara-C was added to the cultures.
CDDO-Me. […] Mechanism of growth inhibition was analyzed on cell cycle and apoptosis in HL-60 cells.

In the next data set the test system is U937 cells. The experiment in a line: Atlas Cancer cDNA array, differential gene expression. The class given is cell-based, human. As to conditions: 1 μM; CDDO 24 hrs, CDDO-Me 1 hour. The method, then:
The differential expression of a large number of genes involved in apoptosis, proliferation and signal transduction were analyzed utilizing the Atlas Cancer c-DNA array from Clontech (Palo Alto, Calif.). […] The downregulation of 17 genes (over two-fold) was seen, some of these genes were MAPKK5, STAT5A and B, DNA topoisomerase 2, VEGFR1 and VEGF. […] Differential expression of a large number of genes involved in apoptosis, proliferation and signal transduction was also performed for CDDO-Me. […] In preliminary studies, the inventors observed over two-fold downregulation of 23 genes: these include MAPK/ERK2, endothelin2, MLH1. Remarkably, decreased expression of VEGFR1, that potentially mediate pro-angiogenic properties of the leukemic cells, was observed (FIG. 33). […] The cDNA array data require conformation but may indicate what changes in gene expression contribute to the observed anti-leukemic effects of CDDO-Me.

For data set [2], the system named is vascular endothelial cells (HUVECs). The experiment in a line: Proliferation of cytokine-stimulated vascular endothelial cells ([3H]-Thymidine, microscopy). The class given is cell-based. The method, then:
CDDO. PPARγ nuclear receptor is expressed in bone marrow endothelial cells, and PPARγ ligands inhibit inhibited endothelial cell proliferation. […] The present inventors therefore tested the effects of CDDO in endothelial cell assays. The formation of tube-like endothelial structures was performed using Matrigel®, a basement membrane matrix extracted from the Engelbreth-Holm Swarm mouse sarcoma cell line. Bone marrow endothelial cells with recombinant angiogenic cytokines were incubated in the presence or absence of CDDO, and formation of tube-like endothelial structures was assessed by direct observation using a inverted contrast-phase microscope. […] Vascular endothelial cells (HUVEC) were grown in EBM-2 or EGM-2 media (Clonetics) containing VEGF, EGF, bFGF and IGF-1. The proliferation of endothelial cells was assessed by inverted contrast-phase microscope after 24 hrs of CDDO exposure in the indicated concentrations. CDDO-Me. The formation of tube-like endothelial structures that are associated with angiogenesis was analyzed using a Matrigel system (Kubota et al., 1988). Capillary-like structure formation of bone marrow endothelium was inhibited by CDDO-Me. […] Thus, CDDO-Me also has anti-angiogenic effects.

In data set [3] the test system is RXR-expressing HL-60 cells. The experiment in a line: Acetylation of nuclear histones, Western blot. The class given is cell-based, human. As to conditions: alone or with RXR-specific ligand LG-100268. The source says:
PPARγ must form a heterodimer with RXR to bind DNA and activate transcription (Nolte et al., 1998). RXR-specific ligands markedly induce the binding of the co-activator SRC-1 to PPARγ-RXR heterodimers ([…] et al., 1998), and assembly of this complex results in a large increase in transcriptional activity. […] One method to increase the effects of PPARγ ligands contemplated herein is by combination with ligands specific for RXR. […] TSA, the histone deacetylase inhibitor, served as a positive control. Combination of the PPARγ ligand CDDO with TSA synergistically induce differentiation in HL-60 cells and the present inventors contemplate that this is a result of transcriptional activation of target genes via histone acetylation.
(In general: In western blotting, separated proteins are transferred to a membrane and probed.)

The text on data set [4]: Subacute toxicity studies. An important aspect of this invention of CDDO-compounds and its combination therapies with other chemotherapeutics is to assess the toxicity and relative therapeutic efficacy of CDDO-compounds. The preliminary toxicity (i.e. determination of LD50 and MTD [maximum tolerated dose]) of CDDO-compounds was studied in healthy BALB/C mice (male and female, 25-30 g) after single i. v. or oral injections. Seven different dose levels (10 mice/dose level) were used after the appropriate pilot dosing experiments to define a MTD dose for both the oral and iv routes of administration. Animals were observed and weighed daily. The experiment was terminated on day 14. Surviving animals were sacrificed by exposure to carbon dioxide. The unit-dose effect line will be constructed and used to calculate lethal doses LD10 and LD50).
Determination of MTD. 60 female Balb/C mice divided into 12 groups of 5 mice. With 5 mice per dose level, six dose levels for IV or oral drug administration were used.
Intravenous CDDO administration. Groups of mice received CDDO intravenously as a single bolus injection into the tail vein on Day 1. […] The typical organs from each mouse that are examined include brain, heart, lungs, spleen, pancreas, kidneys, liver, gastrointestinal tract, lymph nodes, muscle, bone marrow, and skin.
Intravenous CDDO-Me administration. Groups of mice received CDDO-Me intravenously as a single bolus injection into the tail vein on Day 1. […] The typical organs from each mouse that are examined include brain, heart, lungs, spleen, pancreas, kidneys, liver, gastrointestinal tract, lymph nodes, muscle, bone marrow, and skin.

For the next data set, the system named is KG-1. The experiment in a line: Growth inhibition of leukemic cell line. The format is cell-based, human. The source says: (§1) Suspension culture of leukemic cells.
Another data set concerns NB4. The experiment in a line: Growth inhibition of leukemic cell line. The format is cell-based, human.
Text: as §1

The test system of data set [5] is HL-60 cells. The experiment in a line: CDDO-Me plus LG-100268 in HL-60 cells (Table 6). As to conditions: 24 hrs; CDDO-Me 0.1 μM, no ligand. The format is cell-based, human. Also noted: unit not given here. The method, then: Finally, the inventors examined if CDDO-Me combined with ATRA would enhance differentiation. HL-60 cells were cultured with of 0.1 μM of CDDO-Me for 72 hrs, alone or in combination with 1 μM ATRA. […] At 48 hrs, 67.4% in CDDO-Me-treated cells and 63.5% in ATRA-treated cells were CD11b+ (compared with 40% in DMSO controls), while 85% of cells were positive when both compounds were given simultaneously. These studies were repeated 3 times and yielded essentially identical results. Next, combined treatment with CDDO-Me and RXR-specific ligand were tested for potentiation of anti-leukemic effects. RXR-specific ligand LG-100268 (Ligand Pharmaceuticals) used at 10, 100 nm and 1 μM enhanced killing of HL-60 cells in a dose-dependent manner (Table 6).

Each structure is given as a SMILES string. Like-named read-outs stand apart in the source and are kept apart here. Some results are limits rather than exact numbers.

In general, inhibition refers to the drop in the measured response relative to a control, in per cent. `CC1(C)CCC2(C(=O)O)CCC3(C)C(C(=O)C=C4C5(C)C=C(C#N)C(=O)C(C)(C)C5CCC43C)C2C1` (centres unmarked) [CDDO, 2-cyano-3,12-dioxoolen-1,9-dien-28-oic acid]: the CD11b % in the data set with HL-60 cells [1] amounted to 83.1%. In addition, the inhibition at 0.5 µM in the data set with CML-BC sample (Homo sapiens, read-out: inhibition of colonies in one CML-BC sample) is more than 50%. Further, the Daudi cells alive with Daudi cells (1 μM) came out at 73.6%. Also, the viability at 2 µM in the data set with Daudi cells (Homo sapiens, Daudi, read-out: viable cells) stood at 25.3%. Besides, in the data set on U937 cells, the “number of genes downregulated over two-fold” value came to 17 and the “number of genes upregulated” value was 7. Besides, the “proliferation / structure formation of cytokine-stimulated vascular endothelial cells” value in data set [2] is “diminished the proliferation”. Further, the “acetylation of histones H3 and H4” value in data set [3] was “induction of acetylation of histones H3 and H4”. The Diagnoses/observations result in [4] (mouse, in vivo, iv, 0.3 mg/kg) is reported as “Myeloid hyperplasia bone marrow”. Also, the Diagnoses/observations result in data set [4] (mouse, in vivo, iv, 3 mg/kg) was “Myeloid hyperplasia, bone marrow”.

The IC50 is the concentration that gives 50% inhibition. For `COC(=O)[C@]12CCC(C)(C)C[C@H]1[C@H]1C(=O)C=C3[C@@]4(C)C=C(C#N)C(=O)C(C)(C)[C@@H]4CC[C@@]3(C)[C@]1(C)CC2` [CDDO-Me], the “inhibition of colonies in one CML-BC sample” value with CML-BC sample is more than 50%. In the data set on Daudi cells (0.3 μM, 48 hrs), the “cell number, % of DMSO-controls” value was 22.5%. Also, the half-maximal inhibitory concentration (IC50) stood at 400 nM in the data set on KG-1 and 270 nM with NB4. Moreover, in the data set on U937 cells, the “number of genes downregulated over two-fold” value was 23. Moreover, the “number of genes upregulated” value in the data set on U937 cells is given as “Twenty-two”. Moreover, the “proliferation / structure formation of cytokine-stimulated vascular endothelial cells” value in data set [2] is reported as “also inhibited”. Moreover, the “Table 6 value: CDDO-Me-induced monocytic differentiation in HL-60 cells” value with HL-60 cells [5] came to 22.4. The Diagnoses/observations result in [4] (CDDO-Me IV single bolus, 1.0 mg/kg, 14 days) is “DIED @ 5 minutes”; in data set [4] (mouse, in vivo, iv) it was “Myeloid hyperplasia bone marrow”.

(Values after patent US7795305B2, “CDDO-compounds and combination therapies thereof” (Board of Regents, The University of Texas System, priority 2000, dated 2010).)
